Assay results reported in ChEMBL document CHEMBL4177608, “Design and synthesis of benzimidazole-based Rho kinase inhibitors for the treatment of glaucoma” (Bioorg Med Chem, 2017).
Converted amounts (≈) assume the structure as drawn.

Key:
[1] = species on record: Rattus norvegicus; experiment: Reduction in intraocular pressure in Wistar rat model of dexamethasone-induced elevated IOP assessed as change in intraocular pressure at 1 % w/v after 2.5 hrs by tonometry (reference value: 0%); assay type: functional; set-up: scale not given: the % may be the effect or the level left
[2] = Antioxidant activity assessed as DPPH free radical scavenging activity at 200 ug/ml after 30 mins by spectrophotometric analysis; assay type: functional
[3] = species on record: Rattus norvegicus; experiment: Reduction in intraocular pressure in Wistar rat model of dexamethasone-induced elevated IOP assessed as onset time for reduction in intraocular pressure at 1 % w/v by tonometry; assay type: functional
[4] = species on record: Rattus norvegicus; experiment: Reduction in intraocular pressure in Wistar rat model of dexamethasone-induced elevated IOP assessed as change in intraocular pressure in contralateral eye at 1 % w/v after 2 hrs by tonometry (reference value: 0%); assay type: ADME, organism-based; set-up: scale not given: the % may be the effect or the level left; conditions: in vivo
[5] = species on record: Rattus norvegicus; experiment: Reduction in intraocular pressure in Wistar rat model of dexamethasone-induced elevated IOP assessed as change in intraocular pressure in contralateral eye at 1 % w/v after 5 hrs by tonometry (reference value: 0%); assay type: ADME, organism-based; set-up: scale not given: the % may be the effect or the level left; conditions: in vivo
[6] = species on record: Rattus norvegicus; experiment: Reduction in intraocular pressure in Wistar rat model of dexamethasone-induced elevated IOP assessed as change in intraocular pressure at 1 % w/v after 3 hrs by tonometry (reference value: 0%); assay type: functional; set-up: scale not given: the % may be the effect or the level left
[7] = species on record: Rattus norvegicus; experiment: Reduction in intraocular pressure in Wistar rat model of dexamethasone-induced elevated IOP assessed as change in intraocular pressure in contralateral eye at 1 % w/v after 1 hr by tonometry (reference value: 0%); assay type: ADME, organism-based; set-up: scale not given: the % may be the effect or the level left; conditions: in vivo, topical_or_ocular
[8] = Antioxidant activity assessed as DPPH free radical scavenging activity at 5 ug/ml after 30 mins by spectrophotometric analysis; assay type: functional
[9] = Antioxidant activity assessed as DPPH free radical scavenging activity at 50 ug/ml after 30 mins by spectrophotometric analysis; assay type: functional
[10] = species on record: Rattus norvegicus; experiment: Reduction in intraocular pressure in Wistar rat model of dexamethasone-induced elevated IOP assessed as change in intraocular pressure at 1 % w/v after 1.5 hrs by tonometry (reference value: 0%); assay type: functional; set-up: scale not given: the % may be the effect or the level left
[11] = species on record: Rattus norvegicus; experiment: Reduction in intraocular pressure in Wistar rat model of dexamethasone-induced elevated IOP assessed as change in intraocular pressure at 1 % w/v after 2 hrs by tonometry (reference value: 0%); assay type: functional; set-up: scale not given: the % may be the effect or the level left
[12] = 1-Octanol/water partition coefficient, log P of compound at 2 mg after 24 hrs by spectrophotometry based shake flask method; assay type: physicochemical
[13] = Antioxidant activity assessed as DPPH free radical scavenging activity at 150 ug/ml after 30 mins by spectrophotometric analysis; assay type: functional
[14] = Antioxidant activity assessed as DPPH free radical scavenging activity after 30 mins by spectrophotometric analysis; assay type: functional
[15] = species on record: Rattus norvegicus; experiment: Reduction in intraocular pressure in Wistar rat model of dexamethasone-induced elevated IOP assessed as change in intraocular pressure in contralateral eye at 1 % w/v after 3 hrs by tonometry (reference value: 0%); assay type: ADME, organism-based; set-up: scale not given: the % may be the effect or the level left; conditions: in vivo
[16] = species on record: Rattus norvegicus; experiment: Reduction in intraocular pressure in Wistar rat model of dexamethasone-induced elevated IOP assessed as change in intraocular pressure in contralateral eye at 1 % w/v after 2.5 hrs by tonometry (reference value: 0%); assay type: ADME, organism-based; set-up: scale not given: the % may be the effect or the level left; conditions: in vivo
[17] = species on record: Rattus norvegicus; experiment: Reduction in intraocular pressure in Wistar rat model of dexamethasone-induced elevated IOP assessed as peak effect time for reduction in intraocular pressure at 1 % w/v by tonometry; assay type: functional, organism-based
[18] = species on record: Rattus norvegicus; experiment: Reduction in intraocular pressure in Wistar rat model of dexamethasone-induced elevated IOP assessed as change in intraocular pressure at 1 % w/v after 5 hrs by tonometry (reference value: 0%); assay type: functional; set-up: scale not given: the % may be the effect or the level left
[19] = species on record: Rattus norvegicus; experiment: Reduction in intraocular pressure in Wistar rat model of dexamethasone-induced elevated IOP assessed as change in intraocular pressure in contralateral eye at 1 % w/v after 6 hrs by tonometry (reference value: 0%); assay type: ADME, organism-based; set-up: scale not given: the % may be the effect or the level left; conditions: in vivo
[20] = species on record: Rattus norvegicus; experiment: Reduction in intraocular pressure in Wistar rat model of dexamethasone-induced elevated IOP assessed as change in intraocular pressure at 1 % w/v after 4 hrs by tonometry (reference value: 0%); assay type: functional; set-up: scale not given: the % may be the effect or the level left
[21] = Antioxidant activity assessed as DPPH free radical scavenging activity at 100 ug/ml after 30 mins by spectrophotometric analysis; assay type: functional
[22] = species on record: Rattus norvegicus; experiment: Reduction in intraocular pressure in Wistar rat model of dexamethasone-induced elevated IOP assessed as change in intraocular pressure in contralateral eye at 1 % w/v after 4 hrs by tonometry (reference value: 0%); assay type: ADME, organism-based; set-up: scale not given: the % may be the effect or the level left; conditions: in vivo
[23] = species on record: Rattus norvegicus; experiment: Reduction in intraocular pressure in Wistar rat model of dexamethasone-induced elevated IOP assessed as change in intraocular pressure in contralateral eye at 1 % w/v after 0.5 hrs by tonometry (reference value: 0%); assay type: ADME, organism-based; set-up: scale not given: the % may be the effect or the level left; conditions: in vivo, topical_or_ocular
[24] = species on record: Rattus norvegicus; experiment: Reduction in intraocular pressure in Wistar rat model of dexamethasone-induced elevated IOP assessed as change in intraocular pressure at 1 % w/v after 0.5 hrs by tonometry (reference value: 0%); assay type: functional; set-up: scale not given: the % may be the effect or the level left
[25] = species on record: Rattus norvegicus; experiment: Reduction in intraocular pressure in Wistar rat model of dexamethasone-induced elevated IOP assessed as change in intraocular pressure in contralateral eye at 1 % w/v after 1.5 hrs by tonometry (reference value: 0%); assay type: ADME, organism-based; set-up: scale not given: the % may be the effect or the level left; conditions: in vivo
[26] = species on record: Rattus norvegicus; experiment: Reduction in intraocular pressure in Wistar rat model of dexamethasone-induced elevated IOP assessed as reduction in intraocular pressure at peak effect time at 1 % w/v by tonometry; assay type: functional; set-up: scale not given: the % may be the effect or the level left
[27] = species on record: Rattus norvegicus; experiment: Reduction in intraocular pressure in Wistar rat model of dexamethasone-induced elevated IOP assessed as change in intraocular pressure at 1 % w/v after 1 hr by tonometry (reference value: 0%); assay type: functional; set-up: scale not given: the % may be the effect or the level left
[28] = Antioxidant activity assessed as DPPH free radical scavenging activity at 25 ug/ml after 30 mins by spectrophotometric analysis; assay type: functional
[29] = species on record: Rattus norvegicus; experiment: Reduction in intraocular pressure in Wistar rat model of dexamethasone-induced elevated IOP assessed as change in intraocular pressure at 1 % w/v after 6 hrs by tonometry (reference value: 0%); assay type: functional; set-up: scale not given: the % may be the effect or the level left

Activity [4] [%]	Activity [5] [%]	Activity [7] [%]	logP at 24 h [12]	IC50 [14] [µg/mL]	Activity [15] [%]	Activity [16] [%]	Activity [19] [%]	Structure (SMILES)	Activity [1] [%]	Activity [2] [%]	Time [3] [h]	Activity [6] [%]	Activity [8] [%]	Activity [9] [%]	Activity [10] [%]	Activity [11] [%]	Activity [13] [%]	Tmax [17] [h]	Activity [18] [%]	Activity [20] [%]	other results
3.1	0	1.6	2.02	116.48 (≈ 330 µM)	2.3	4.15	0	O=C(CN1CCN(C(=O)c2ccco2)CC1)Nc1nc2ccccc2[nH]1	14.92	71	0.5	8.63	14.5	35.9	8.8	11.1	59	2	4.47	6.6	Activity [21]: 49%; Activity [22]: 0.8%; Activity [23]: 0.4%; Activity [24]: 3.9%; Activity [25]: 2.03%; Activity [26]: 48.33%; Activity [27]: 4.6%; Activity [28]: 23.4%; Activity [29]: 1.27%
3.57	0	2.07	2.65	144.19 (≈ 395 µM)	2	3.97	0	COc1ccc(N2CCN(CC(=O)Nc3nc4ccccc4[nH]3)CC2)cc1	15.32	63.7	0.5	10.08	7.24	25.8	6.15	9.42	53.2	2.5	3.37	7	Activity [21]: 38.9%; Activity [22]: 0.43%; Activity [23]: 1.2%; Activity [24]: 3.8%; Activity [25]: 2.83%; Activity [26]: 46.92%; Activity [27]: 5.67%; Activity [28]: 13.3%; Activity [29]: 1.33%
3.97	0	1.85	1.85	107.77 (≈ 319 µM)	0.42	2.1	0	O=C(CN1CCN(c2ncccn2)CC1)Nc1nc2ccccc2[nH]1	11.77	81.8	0.5	9.1	8.77	31	10.92	15.45	68.4	2	3.15	5.62	Activity [21]: 46.5%; Activity [22]: 0%; Activity [23]: 0.95%; Activity [24]: 3.5%; Activity [25]: 2.05%; Activity [26]: 50%; Activity [27]: 7.42%; Activity [28]: 20.4%; Activity [29]: 0.35%
4.77	0	2.1	0.97	132.65 (≈ 363 µM)	1.7	2.5	0	COc1ccccc1N1CCN(CC(=O)Nc2nc3ccccc3[nH]2)CC1	11.02	64.5	0.5	7.35	10.8	35.7	9.48	16.5	55.2	2.5	1.73	4.53	Activity [21]: 43.2%; Activity [22]: 0%; Activity [23]: 1.27%; Activity [24]: 4.2%; Activity [25]: 4.1%; Activity [26]: 49.92%; Activity [27]: 5.37%; Activity [28]: 21.3%; Activity [29]: 0.9%
